Data: patent US20240051952A1, “HMOX1 INDUCERS” (Mitobridge Inc., priority 2019, published 2024)

System: Human Heme Oxygenase-1 (HMOX-1)
Experiment: ELISA assay to measure human heme oxygenase-1 (HMOX-1) in HepG2 lysate
Format: cell-based
Settings: fold change of human HMOX1 protein levels relative to DMSO control, HepG2
Method in brief: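 HO-1 protein quantified by chemiluminescent sandwich ELISA against a 2-fold standard series starting at 20 ng/ml. Samples were 1:20-diluted HepG2 lysates made in Triton X-100/EDTA buffer with protease inhibitors. Capture antibody coated at 8 μg/ml, detection antibody used at 200 ng/ml, room-temperature (20 °C) steps.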

Maximum Fold induction	Compound
20	Cn1c(Nc2nc3ccc(C(F)(F)F)nc3o2)nc2cc(C(=O)NCCO)ccc21 [Example 113, N-(2-hydroxyethyl)-1-methyl-2-((5-(trifluoromethyl)oxazolo[5,4-b]pyridin-2-yl)amino)-1H-benzo[d]imidazole-5-carboxamide]
33	Cn1c(Nc2nc3nccnc3s2)nc2cc(C(=O)NCCOCCO)ccc21 [Example 114, N-(2-(2-hydroxyethoxy)ethyl)-1-methyl-2-(thiazolo[4,5-b]pyrazin-2-ylamino)-1H-benzo[d]imidazole-5-carboxamide]
71	Cn1c(Nc2nc3ccc(C4CC4)cc3o2)nc2cc(C(=O)O)ccc21 [Example 115, 2-((6-cyclopropylbenzo[d]oxazol-2-yl)amino)-1-methyl-1H-benzo[d]imidazole-5-carboxylic acid]
32-38	COCCNC(=O)c1ccc2c(c1)nc(Nc1nc3ccc(C4CC4)cc3o1)n2C [Example 116, 2-((6-cyclopropylbenzo[d]oxazol-2-yl)amino)-N-(2-methoxyethyl)-1-methyl-1H-benzo[d]imidazole-5-carboxamide]
38	Cn1c(Nc2nc3cccc(C(F)(F)F)c3o2)nc2cc(C(=O)NCCOCCO)ccc21 [Example 117, N-(2-(2-hydroxyethoxy)ethyl)-1-methyl-2-((7-(trifluoromethyl)benzo[d]oxazol-2-yl)amino)-1H-benzo[d]imidazole-5-carboxamide]
24	Cn1c(Nc2nc3cc(C(=O)NCCOCCO)ccc3o2)nc2ccccc21 [Example 118, N-(2-(2-hydroxyethoxy)ethyl)-2-((1-methyl-1H-benzo[d]imidazol-2-yl)amino)benzo[d]oxazole-5-carboxamide]
47-65	COCCONC(=O)c1ccc2c(c1)nc(Nc1nc3ccccc3o1)n2C [Example 119, 2-(benzo[d]oxazol-2-ylamino)-N-(2-methoxyethoxy)-1-methyl-1H-benzo[d]imidazole-5-carboxamide]
26	CC(O)CONC(=O)c1ccc2c(c1)nc(Nc1nc3ccccc3o1)n2C (stereo not drawn) [Example 120, 2-(benzo[d]oxazol-2-ylamino)-N-(2-hydroxypropoxy)-1-methyl-1H-benzo[d]imidazole-5-carboxamide]
22-23	CN(C)CC(=O)NCCONC(=O)c1ccc2c(c1)nc(Nc1nc3ccccc3o1)n2C [Example 121, 2-(benzo[d]oxazol-2-ylamino)-N-(2-(2-(dimethylamino)acetamido)ethoxy)-1-methyl-1H-benzo[d]imidazole-5-carboxamide]
51-67	CN(C)CCONC(=O)c1ccc2c(c1)nc(Nc1nc3ccc(C(F)(F)F)cc3o1)n2C [Example 122, N-(2-(dimethylamino)ethoxy)-1-methyl-2-((6-(trifluoromethyl)benzo[d]oxazol-2-yl)amino)-1H-benzo[d]imidazole-5-carboxamide]
22	CN(C)CCONC(=O)c1ccc2c(c1)nc(Nc1nc3ccccc3o1)n2C [Example 123, 2-(benzo[d]oxazol-2-ylamino)-N-(2-(dimethylamino)ethoxy)-1-methyl-1H-benzo[d]imidazole-5-carboxamide]
31-52	COCCONC(=O)c1ccc2c(c1)nc(Nc1nc3ccc(C(F)(F)F)cc3o1)n2C [Example 124, N-(2-methoxyethoxy)-1-methyl-2-((6-(trifluoromethyl)benzo[d]oxazol-2-yl)amino)-1H-benzo[d]imidazole-5-carboxamide]
32-59	Cn1c(Nc2nc3ccc(C(F)(F)F)cc3o2)nc2cc(C(=O)NOCCO)ccc21 [Example 125, N-(2-hydroxyethoxy)-1-methyl-2-((6-(trifluoromethyl)benzo[d]oxazol-2-yl)amino)-1H-benzo[d]imidazole-5-carboxamide]
33-37	Cn1c(Nc2nc3ccc(OC(F)(F)F)cc3o2)nc2cc(C(=O)NOCCO)ccc21 [Example 126, N-(2-hydroxyethoxy)-1-methyl-2-((6-(trifluoromethoxy)benzo[d]oxazol-2-yl)amino)-1H-benzo[d]imidazole-5-carboxamide]
27-36	COCCONC(=O)c1ccc2c(c1)nc(Nc1nc3ccc(OC(F)(F)F)cc3o1)n2C [Example 127, N-(2-methoxyethoxy)-1-methyl-2-((6-(trifluoromethoxy)benzo[d]oxazol-2-yl)amino)-1H-benzo[d]imidazole-5-carboxamide]
48-75	COCCOc1ccc2nc(Nc3nc4cc(C(=O)NOCCO)ccc4n3C)oc2c1 [Example 128, N-(2-hydroxyethoxy)-2-((6-(2-methoxyethoxy)benzo[d]oxazol-2-yl)amino)-1-methyl-1H-benzo[d]imidazole-5-carboxamide]
54-58	Cn1c(Nc2nc3ccc(OCCO)cc3o2)nc2cc(C(=O)NOCCO)ccc21 [Example 129, N-(2-hydroxyethoxy)-2-((6-(2-hydroxyethoxy)benzo[d]oxazol-2-yl)amino)-1-methyl-1H-benzo[d]imidazole-5-carboxamide]
42	Cn1c(Nc2nc3cc(F)c(C(F)(F)F)cc3o2)nc2cc(C(=O)NOCCO)ccc21 [Example 130, 2-((5-fluoro-6-(trifluoromethyl)benzo[d]oxazol-2-yl)amino)-N-(2-hydroxyethoxy)-1-methyl-1H-benzo[d]imidazole-5-carboxamide]
35-62	CC1CCc2nc(Nc3nc4cc(C(=O)NOCCO)ccc4n3C)sc2C1 (stereo not drawn) [Example 131, N-(2-hydroxyethoxy)-1-methyl-2-((6-methyl-4,5,6,7-tetrahydrobenzo[d]thiazol-2-yl)amino)-1H-benzo[d]imidazole-5-carboxamide]
39	COCCONC(=O)c1ccc2c(c1)nc(Nc1nc3ccc(C(C)=O)cc3o1)n2C [Example 132, 2-((6-acetylbenzo[d]oxazol-2-yl)amino)-N-(2-methoxyethoxy)-1-methyl-1H-benzo[d]imidazole-5-carboxamide]
17	Cn1c(Nc2nc3ccc(C(C)(C)O)cc3o2)nc2cc(C(=O)NCCO)ccc21 [Example 133, N-(2-hydroxyethyl)-2-((6-(2-hydroxypropan-2-yl)benzo[d]oxazol-2-yl)amino)-1-methyl-1H-benzo[d]imidazole-5-carboxamide]
42-70	Cn1c(Nc2nc3ccc(-c4cscn4)cc3o2)nc2cc(C(=O)NCCOCCO)ccc21 [Example 134, N-(2-(2-hydroxyethoxy)ethyl)-1-methyl-2-((6-(thiazol-4-yl)benzo[d]oxazol-2-yl)amino)-1H-benzo[d]imidazole-5-carboxamide]
1	CN1CC(c2ccc3nc(Nc4nc5cc(C(=O)NCCOCCO)ccc5n4C)oc3c2)OC1=O (stereo not drawn) [Example 135, N-(2-(2-hydroxyethoxy)ethyl)-1-methyl-2-((6-(3-methyl-2-oxooxazolidin-5-yl)benzo[d]oxazol-2-yl)amino)-1H-benzo[d]imidazole-5-carboxamide]
36	Cn1c(Nc2nc3ccc(N4CCOCC4)cc3o2)nc2cc(C(=O)NCCOCCO)ccc21 [Example 136, N-(2-(2-hydroxyethoxy)ethyl)-1-methyl-2-((6-morpholinobenzo[d]oxazol-2-yl)amino)-1H-benzo[d]imidazole-5-carboxamide]
